Tests used:
[1] = target: T1, TAK1-TAB1 (Homo sapiens, UniProt O43318); experiment: TAK1-TAB1 binding inhibitory potency (LanthaScreen competitive binding assay, kinase tracer-236); conditions: 10 nM TAK1-TAB1, 100 nM kinase tracer-236; read-out: TAK1-Tab Inhibition IC50
T1 sequence (O43318 with tags, fused parts or gaps limits assumed): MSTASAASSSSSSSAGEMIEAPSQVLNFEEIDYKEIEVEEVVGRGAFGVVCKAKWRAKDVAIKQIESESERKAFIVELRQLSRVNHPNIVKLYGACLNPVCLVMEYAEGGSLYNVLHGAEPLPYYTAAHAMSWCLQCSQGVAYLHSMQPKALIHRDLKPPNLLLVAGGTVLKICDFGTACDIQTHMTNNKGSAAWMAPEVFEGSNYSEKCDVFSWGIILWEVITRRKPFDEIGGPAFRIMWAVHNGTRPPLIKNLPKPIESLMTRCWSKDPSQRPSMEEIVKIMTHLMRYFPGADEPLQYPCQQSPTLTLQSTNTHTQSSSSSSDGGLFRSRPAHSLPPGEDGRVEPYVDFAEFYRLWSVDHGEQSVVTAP
Text: TAK1-TAB1 Binding Inhibitory Potency:
The ability of candidate compounds to interact with TAK1-TAB1 is quantitated by a competitive binding assay using the LanthaScreen technology developed by Life Technologies. This assay is based on the binding of a proprietary, Alexa Fluor® 647-labeled, ATP-competitive kinase inhibitor (kinase tracer-236) to the TAK1-TAB1 construct in presence of a europium-conjugated antibody, resulting in a FRET (fluorescence resonance energy transfer) signal. Displacement of the kinase tracer by compound results in a lower emission ratio upon excitation of the europium chelate. Candidate compounds are designed as potential irreversible inhibitors of TAK1-TAB1, capable of ligating to an active site cysteine residue. The time dependent nature of irreversible inhibition is investigated by performing the binding assay with and without a pre-incubation of compound and TAK1-TAB1.
The inhibitory potency of candidate compounds is measured in 20 mM HEPES pH 7.5, 10 mM MgCl2, 0.01% BSA, 0.0005% Tween-20, and 2% DMSO in the presence of 10 nM TAK1-TAB1, 2 nM Eu-anti-his antibody, and 100 nM kinase tracer-236 using a 384-well plate format. Background signal is defined in the absence of TAK1-TAB1 and uninhibited signal is defined in the presence of vehicle (2% DMSO) alone. Compounds were evaluated in an 11 point dose-response ranging from 20 μM to 0.34 nM. The binding assays are performed under two conditions to evaluate time dependence of inhibition. For the pre-incubation assay, TAK1-TAB1 and Eu-anti-his antibody are preincubated with compound or vehicle for two hours prior to the addition of kinase tracer. The non-preincubated assay is run in which TAK1-TAB1 and Eu-anti-his antibody are added to a mixture of compound and kinase tracer. IC50 values of compounds are determined using a 4 parameter logistical fit of emission ratio as a function of the concentration of compound. […]

[2] = tested on: IL-6 Production in Human Peripheral Blood Mononuclear Cells (PBMC); experiment: LPS stimulated IL-6 production in PBMC cells; format: cell-based; conditions: read-out: IL-6 Production Inhibition IC50
Experimental: LPS Stimulated IL-6 Production in PBMC Cells:
Lipopolysaccharide (LPS) stimulated IL-6 Production in Human Peripheral Blood Mononuclear Cells (PBMC): The cellular efficacy of compound candidates is determined using peripheral blood mononuclear cells purified from human whole blood, based upon the methods of Burnette et al. (2009) Pharmacology, 84:42-60. PBMC produce a number of cytokines (IL6, IL8, IL1β and TNFα) in response to stimulation with LPS. To induce the production of inflammatory mediators, PBMC are plated at a final concentration of 2×10^5 cells/well in a 96 well flat bottom plate in DMEM medium supplemented with 10% fetal bovine serum, 100 units/ml penicillin and 100 μg/ml streptomycin (Gibco BRL Life Technologies). Cells are treated with or without inhibitors for 1-3 hrs then stimulated with 100 ng/ml LPS (serotype 011:B4, Sigma) for an additional 3 hrs at 37° C. with 5% CO2. The supernatants are removed and stored at −20° C. until they are to be assayed. The levels of inflammatory mediators are determined using commercial MSD cytokine kits (Meso Scale Discovery) as per the manufacturer's instructions. Standard curves are based on 7 steps of 4× serial dilutions, with a wide dynamic range of 10000 pg/ml to 2.4 pg/ml, and a blank. Lower limit of detection (LLOD) is calculated at the commonly used 3× the standard deviation of the blank.

SMILES: NC(=O)/C=C/c1c[nH]c2ncc(-c3ccccc3)cc12 [Example 1, 3-(5-Phenyl-1H-pyrrolo[2,3-b]pyridin-3-yl)-acrylamide]
- IC50 [1]: ≤ 1000 nM
- IC50 [2]: ≤ 1000 nM

SMILES: NC(=O)/C=C/c1c[nH]c2ncc(-c3ccc(F)cc3F)cc12 [Example 2, (E)-3-(5-(2,4-Difluorophenyl)-1H-pyrrolo[2,3-b]pyridin-3-yl)acrylamide]
- IC50 [1]: ≤ 1000 nM
- IC50 [2]: ≤ 1000 nM

SMILES: NC(=O)/C=C/c1c[nH]c2ncc(-c3ccccc3)nc12 [Example 4, (E)-3-(2-Phenyl-5H-pyrrolo[2,3-b]pyrazin-7-yl)acrylamide]
- IC50 [1]: ≤ 1000 nM
- IC50 [2]: ≤ 1000 nM

SMILES: Cn1cc(-c2cnc3[nH]cc(/C=C/C(N)=O)c3c2)cn1 [Example 5, (E)-3-(5-(1-Methyl-1H-pyrazol-4-yl)-1H-pyrrolo[2,3-b]pyridin-3-yl)acrylamide]
- IC50 [1]: ≤ 1000 nM
- IC50 [2]: ≤ 1000 nM

SMILES: Cn1cc(-c2cnc3[nH]cc(/C=C/C(N)=O)c3n2)cn1 [Example 6, (E)-3-(2-(1-Methyl-1H-pyrazol-4-yl)-5H-pyrrolo[2,3-b]pyrazin-7-yl)acrylamide]
- IC50 [1]: ≤ 1000 nM
- IC50 [2]: ≤ 1000 nM

SMILES: CC(C)Oc1ccnc2[nH]cc(/C=C/C(N)=O)c12 [Example 7, (E)-3-(4-Isopropoxy-1H-pyrrolo[2,3-b]pyridin-3-yl)acrylamide]
- IC50 [1]: ≤ 1000 nM
- IC50 [2]: ≤ 1000 nM

SMILES: CC(C)Oc1cnc2[nH]cc(/C=C/C(N)=O)c2c1 [Example 8, 3-(5-Isopropoxy-1H-pyrrolo[2,3-b]pyridin-3-yl)-acrylamide]
- IC50 [1]: ≤ 1000 nM
- IC50 [2]: ≤ 1000 nM

SMILES: CC(C)Nc1cnc2[nH]cc(/C=C/C(N)=O)c2c1 [Example 9, 3-(5-Isopropylamino-1H-pyrrolo[2,3-b]pyridin-3-yl)-acrylamide]
- IC50 [1]: ≤ 1000 nM
- IC50 [2]: ≤ 1000 nM

SMILES: CC(C)Nc1cnc2[nH]cc(/C=C/C(N)=O)c2n1 [Example 10, 3-(2-Isopropylamino-5H-pyrrolo[2,3-b]pyrazin-7-yl)-acrylamide]
- IC50 [1]: ≤ 1000 nM
- IC50 [2]: ≤ 1000 nM

SMILES: COc1cccc(-c2cnc3[nH]cc(/C=C/C(N)=O)c3c2)c1 [Example 11, (E)-3-(5-(3-Methoxyphenyl)-1H-pyrrolo[2,3-b]pyridin-3-yl)acrylamide]
- IC50 [1]: ≤ 1000 nM
- IC50 [2]: ≤ 1000 nM

SMILES: COc1ccc(-c2cnc3[nH]cc(/C=C/C(N)=O)c3c2)cc1 [Example 12, (E)-3-(5-(4-Methoxyphenyl)-1H-pyrrolo[2,3-b]pyridin-3-yl)acrylamide]
- IC50 [1]: ≤ 1000 nM
- IC50 [2]: ≤ 1000 nM

SMILES: NC(=O)/C=C/c1c[nH]c2ncc(-c3cccnc3)cc12 [Example 13, 3-(5-Pyridin-3-yl-1H-pyrrolo[2,3-b]pyridin-3-yl)-acrylamide]
- IC50 [1]: ≤ 1000 nM
- IC50 [2]: ≤ 1000 nM

SMILES: N#Cc1ccc(-c2cnc3[nH]cc(/C=C/C(N)=O)c3c2)cc1 [Example 17, 3-[5-(4-Cyano-phenyl)-1H-pyrrolo[2,3-b]pyridin-3-yl]-acrylamide]
- IC50 [1]: ≤ 1000 nM
- IC50 [2]: ≤ 1000 nM

SMILES: N#Cc1cccc(-c2cnc3[nH]cc(/C=C/C(N)=O)c3c2)c1 [Example 18, 3-[5-(3-Cyano-phenyl)-1H-pyrrolo[2,3-b]pyridin-3-yl]-acrylamide]
- IC50 [1]: ≤ 1000 nM
- IC50 [2]: ≤ 1000 nM

SMILES: COc1ccc(-c2cnc3[nH]cc(/C=C/C(N)=O)c3c2)cn1 [Example 20, (E)-3-(5-(6-methoxypyridin-3-yl)-1H-pyrrolo[2,3-b]pyridin-3-yl)acrylamide]
- IC50 [1]: ≤ 1000 nM
- IC50 [2]: ≤ 1000 nM

SMILES: CS(=O)(=O)c1ccc(-c2cnc3[nH]cc(/C=C/C(N)=O)c3c2)cc1 [Example 23, (E)-3-(5-(4-(methylsulfonyl)phenyl)-1H-pyrrolo[2,3-b]pyridin-3-yl)acrylamide]
- IC50 [1]: ≤ 1000 nM
- IC50 [2]: > 1000 nM

SMILES: CC(C)(O)COc1ccc(-c2cnc3[nH]cc(/C=C/C(N)=O)c3c2)cc1 [Example 32, (E)-3-(5-(4-(2-hydroxy-2-methylpropoxy)phenyl)-1H-pyrrolo[2,3-b]pyridin-3-yl)acrylamide]
- IC50 [1]: ≤ 1000 nM
- IC50 [2]: ≤ 1000 nM

SMILES: NC(=O)/C=C/c1c[nH]c2ncc(Cc3ccccc3)cc12 [Example 39]
- IC50 [1]: ≤ 1000 nM
- IC50 [2]: ≤ 1000 nM

SMILES: N#C/C(=C\c1c[nH]c2ncc(-c3ccccc3)cc12)C(N)=O [Example 226, (E)-2-Cyano-3-(5-phenyl-1H-pyrrolo[2,3-b]pyridin-3-yl)acrylamide]
- IC50 [1]: ≤ 1000 nM
- IC50 [2]: ≤ 1000 nM

SMILES: NC(=O)/C=C\C(=O)Nc1c[nH]c2ncc(-c3ccccc3)cc12 [Example 234, N^1--(5-phenyl-1H-pyrrolo[2,3-b]pyridin-3-yl)maleamide]
- IC50 [1]: > 1000 nM
- IC50 [2]: ≤ 1000 nM

SMILES: CC(=O)/C=C/C(=O)Nc1c[nH]c2ncc(-c3ccccc3)cc12 [Example 240, (E)-4-oxo-N-(5-phenyl-1H-pyrrolo[2,3-b]pyridin-3-yl)pent-2-enamide]
- IC50 [1]: ≤ 1000 nM
- IC50 [2]: ≤ 1000 nM

SMILES: CC(=O)c1cccc(-c2cnc3[nH]cc(/C=C/C(N)=O)c3c2)c1 [Example 244, (E)-3-(5-(3-acetylphenyl)-1H-pyrrolo[2,3-b]pyridin-3-yl)acrylamide]
- IC50 [1]: ≤ 1000 nM
- IC50 [2]: ≤ 1000 nM

SMILES: CC(=O)c1ccc(-c2cnc3[nH]cc(/C=C/C(N)=O)c3c2)cc1 [Example 245, (E)-3-(5-(4-acetylphenyl)-1H-pyrrolo[2,3-b]pyridin-3-yl)acrylamide]
- IC50 [1]: ≤ 1000 nM
- IC50 [2]: ≤ 1000 nM

SMILES: CC(C)(O)c1cccc(-c2cnc3[nH]cc(/C=C/C(N)=O)c3c2)c1 [Example 246, (E)-3-(5-(3-(2-hydroxypropan-2-yl)phenyl)-1H-pyrrolo[2,3-b]pyridin-3-yl)acrylamide]
- IC50 [1]: ≤ 1000 nM
- IC50 [2]: ≤ 1000 nM

SMILES: CC(C)(O)c1ccc(-c2cnc3[nH]cc(/C=C/C(N)=O)c3c2)cc1 [Example 247, (E)-3-(5-(4-(2-hydroxypropan-2-yl)phenyl)-1H-pyrrolo[2,3-b]pyridin-3-yl)acrylamide]
- IC50 [1]: ≤ 1000 nM
- IC50 [2]: ≤ 1000 nM

SMILES: NC(=O)/C=C/c1c[nH]c2ncc(-c3ccc(F)cc3F)nc12 [Example 248, (E)-3-(2-(2,4-difluorophenyl)-5H-pyrrolo[2,3-b]pyrazin-7-yl)acrylamide]
- IC50 [1]: ≤ 1000 nM
- IC50 [2]: ≤ 1000 nM

SMILES: CC(C)(O)c1cccc(-c2cnc3[nH]cc(/C=C(\C#N)C(N)=O)c3c2)c1 [Example 361, (E)-2-cyano-3-(5-(3-(2-hydroxypropan-2-yl)phenyl)-1H-pyrrolo[2,3-b]pyridin-3-yl)acrylamide]
- IC50 [1]: ≤ 1000 nM

SMILES: NC(=O)/C=C/c1c[nH]c2ncc(-c3ccc(C(=O)c4cc(F)cc(F)c4)cc3)cc12 [Example 362, (E)-3-(5-(4-(3,5-difluorobenzoyl)phenyl)-1H-pyrrolo[2,3-b]pyridin-3-yl)acrylamide]
- IC50 [1]: ≤ 1000 nM

SMILES: NC(=O)/C=C/c1c[nH]c2ncc(-c3ccc(N4CCCCC4)nc3)cc12 [Example 363, (E)-3-(5-(6-(piperidin-1-yl)pyridin-3-yl)-1H-pyrrolo [2,3-b]pyridin-3-yl)acrylamide]
- IC50 [1]: ≤ 1000 nM

SMILES: N#C/C(=C\c1c[nH]c2ncc(-c3ccc(OCC4CC4)nc3)cc12)C(N)=O [Example 364, (E)-2-cyano-3-(5-(6-(cyclopropyl-methoxy)pyridin-3-yl)-1H-pyrrolo[2,3-b]pyridin-3-yl)acrylamide]
- IC50 [1]: ≤ 1000 nM

SMILES: CC(C)(O)c1cccc(-c2cnc3[nH]cc(C=C(C(N)=O)C(N)=O)c3c2)c1 [Example 365, 2-((5-(3-(2-hydroxypropan-2-yl)phenyl)-1H-pyrrolo[2,3-b]pyridin-3-yl)methylene) malonamide]
- IC50 [1]: ≤ 1000 nM
